# Results taken from patent publication US6025349A, “Phenyl.-substituted alkenylcarboguanidides carrying perfluoroalkyl groups, a process for their preparation, their use as a medicament or diagnostic agent, and also a medicament containing them” (priority 1994, dated 2000).
# Structures can show the parent of a compound that is named as a salt.
# How the values were obtained:
# rat hearts = details: isolated rat hearts; Eur. Heart J. 9 (suppl. 1): 167 (1988); cited from earlier work
# [1] = system: cardiac rhythm disturbances; details: cited from earlier work
# [2] = target: T1, Na^+ /H^+ exchanger of rabbit erythrocytes (Oryctolagus cuniculus, UniProt P23791); experiment: Inhibition of the Na^+ /H^+ exchanger of rabbit erythrocytes (amiloride-sensitive sodium influx, flame photometry); type: cell-based; details: pH 7.4, 37° C., cholesterol-fed White New Zealand rabbits
# T1 construct: from tissue; host or cells: rabbit blood (erythrocytes), White New Zealand rabbits
# T1 sequence (P23791 whole entry): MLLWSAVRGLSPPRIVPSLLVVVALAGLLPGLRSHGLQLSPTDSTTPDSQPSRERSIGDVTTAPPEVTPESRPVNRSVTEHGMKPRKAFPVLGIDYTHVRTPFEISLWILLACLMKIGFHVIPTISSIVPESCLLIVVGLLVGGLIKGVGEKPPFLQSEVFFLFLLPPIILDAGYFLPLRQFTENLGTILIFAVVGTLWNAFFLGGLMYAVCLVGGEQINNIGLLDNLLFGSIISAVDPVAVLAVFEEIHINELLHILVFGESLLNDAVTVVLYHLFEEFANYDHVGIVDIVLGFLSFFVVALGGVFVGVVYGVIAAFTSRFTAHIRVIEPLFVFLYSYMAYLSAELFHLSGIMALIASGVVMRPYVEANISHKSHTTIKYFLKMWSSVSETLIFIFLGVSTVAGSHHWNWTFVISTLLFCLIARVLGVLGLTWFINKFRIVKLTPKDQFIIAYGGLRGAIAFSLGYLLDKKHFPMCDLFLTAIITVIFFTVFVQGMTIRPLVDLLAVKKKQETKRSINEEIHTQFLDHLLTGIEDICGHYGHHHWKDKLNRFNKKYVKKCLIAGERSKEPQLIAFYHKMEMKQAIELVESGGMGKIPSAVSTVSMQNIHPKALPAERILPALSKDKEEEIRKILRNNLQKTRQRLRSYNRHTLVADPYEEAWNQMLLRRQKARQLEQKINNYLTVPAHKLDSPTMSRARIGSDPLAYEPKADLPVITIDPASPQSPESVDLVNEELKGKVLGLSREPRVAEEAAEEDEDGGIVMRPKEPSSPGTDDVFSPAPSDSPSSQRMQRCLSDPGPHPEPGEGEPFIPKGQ
# Excerpt: Inhibition of the Na^+ /H^+ exchanger of rabbit erythrocytes:
# White New Zealand rabbits (Ivanovas) received a standard diet containing 2% cholesterol for six weeks in order to activate Na^+ /H^+ exchange and thus to be able to determine the Na^+ influx into the erythrocytes via Na^+ /H^+ exchange by flame photometry. The blood was taken from the ear arteries and anticoagulated by 25 IU/ml potassium heparin. A portion of each sample was used for duplicate determination of the hematocrit by centrifugation. Aliquots each of 100 μl were used to measure the initial Na^+ content of the erythrocytes.
# In order to determine the amiloride-sensitive sodium influx, 100 μl of each blood sample were incubated in each case in 5 ml of a hyperosmolar salt/sucrose medium (mmol/l: 140 NaCl, 3 KCl, 150 sucrose, 0.1 ouabain, 20 tris-hydroxymethylaminomethane) at pH 7.4 and 37° C. The erythrocytes were then washed three times with ice-cold MgCl2 /ouabain solution (mmol/l: 112 MgCl2, 0.1 ouabain) and hemolyzed in 2.0 ml of distilled water. The intracellular sodium content was determined by flame photometry.
# The net Na^+ influx was calculated from the difference between the initial sodium levels and the sodium content of the erythrocytes after incubation. The sodium influx which can be inhibited by amiloride was found from the difference in the sodium content of the erythrocytes after incubation with and without amiloride 3×10^-4 mol/l. The compounds according to the invention were also subjected to this process.
IC50 [2] [nM],SMILES,suppression of artificially induced ventricular fibrillation (rat hearts),"antiarrhythmic effect ([1]; Circulation 79, 1257-63 (1989))",accompanying side effects ([1]; in vivo)
,N=C(N)NC(=O)c1nc(Cl)c(N)nc1N [amiloride],completely to suppress artificially induced ventricular fibrillation,only weak,blood pressure-lowering and saluretic effect
,CCN(c1nc(N)c(C(=O)NC(=N)N)nc1Cl)C(C)C [ethylisopropylamiloride],Even more potent than amiloride,,
< 1000,"C/C(=C\c1cccc(C(F)(F)F)c1)C(=O)N=C(N)N [Example 3, Trans-2-Methyl-3-(3-Trifluoromethylphenyl)-Acrylic Acid Guanidide]",,,
< 1000,"NC(N)=NC(=O)C=Cc1cccc(C(F)(F)F)c1 [Example 1, Meta-Trifluoromethylcinnamic Acid Guanidide Hydrochloride]",,,
< 1000,"C/C(C(=O)N=C(N)N)=C(/C)c1cc(C(F)(F)F)ccc1F [Example 10, Trans-2,3-Dimethyl-3-[2-Fluoro-5-Trifluoromethyl-Phenyl]-Acrylic Acid Guanidide]",,,
